What is called IC50 is the concentration needed to halve the response being measured.

The assay has as its system KB 3.1 (DSMZ ACC 158) cells. Nature of the assay: Cell proliferation assay under folate free conditions. The class given is cell-based. The note with it: RPMI-medium without folic acid + 10% dialyzed fetal calf serum; MTT assay after 1, 2 and 5 days (day of the value not given); read-out: IC50 [nM] KB 3.1 (Folate-Ratjadone Conjugates). The method, then:
KB 3.1 (DSMZ ACC 158) cells were cultivated at 37° C. and 10% C002 in RMPI-medium without folic acid (Gibco) with 10% fetal calf serum (Gibco). 120 μL of suspended cells (100.000/mL) were seeded in wells of 96-well plates and after 24 h at 37° C. and 10% CO2 the medium was removed, the cells were washed with PBS and RPMI-medium without folic acid (Gibco)+10% dialyzed fetal calf serum (Sigma) were added to the cells, before after additional 24 h at 37° C. and 10% C002 60 μL of serial dilutions of the test compound were given to cells. After 1, 2 and 5 days of incubation growth inhibition (IC50) was determined using an MTT assay.^[64]
Background: Formazan colour is commonly taken as a measure of viable cells.

Regarding `C/C=C/[C@@H]1O[C@H]([C@@H](/C=C/C=C(\C)C[C@@H](C)/C=C(C)\C=C\[C@H]2CC=CC(=O)O2)NC(=O)OCc2ccc(NC(=O)[C@H](CCCNC(N)=O)NC(=O)[C@@H](NC(=O)OC[C@@H]3[C@@H]4CCc5nnn(-c6ccc(C(=O)NCCCC[C@H](NC(=O)CC[C@H](NC(=O)CC[C@H](NC(=O)c7ccc(NCc8cnc9nc(N)nc(O)c9n8)cc7)C(=O)O)C(=O)O)C(=O)O)cc6)c5CC[C@@H]43)C(C)C)cc2)C[C@@H](O)[C@@H]1C` [FA-6-Val-Cit-PABA-16R-Aminoratjadone], the IC50 was found to be 223 nM.

Regarding `C/C=C/[C@@H]1O[C@H]([C@@H](/C=C/C=C(\C)C[C@@H](C)/C=C(C)\C=C\[C@H]2CC=CC(=O)O2)NC(=O)OCCc2cn(CCC[C@H](NC(=O)CC[C@H](NC(=O)CC[C@H](NC(=O)c3ccc(NCc4cnc5nc(N)nc(O)c5n4)cc3)C(=O)O)C(=O)O)C(=O)O)nn2)C[C@@H](O)[C@@H]1C` [FA-7-16R-Aminoratjadone, N^2-(4-(((2-amino-4-hydroxypteridin-6-yl)methyl)amino)benzoyl)-N^5—((S)-1-carboxy-4-(((S)-1-carboxy-4-(4-(2-((((1R,2E,4E,7R,8Z,10E)-1-((2S,4R,5S,6S)-4-hydroxy-5-methyl-6-((E)-prop-1-en-1-yl)tetrahydro-2H-pyran-2-yl)-5,7,9-trimethyl-11-((R)-6-oxo-3,6-dihydro-2H-pyran-2-yl)undeca-2,4,8,10-tetraen-1-yl)carbamoyl)oxy)ethyl)-1H-1,2,3-triazol-1-yl)butyl)amino)-4-oxobutyl)-L-glutamine], the IC50 was 190 nM.

Consider `C/C=C/[C@@H]1O[C@H]([C@@H](/C=C/C=C(\C)C[C@@H](C)/C=C(C)\C=C\[C@H]2CC=CC(=O)O2)NC(=O)OCc2ccc(NC(=O)[C@H](CCCNC(N)=O)NC(=O)[C@@H](NC(=O)OC[C@@H]3[C@@H]4CCc5nnn(CCC[C@H](NC(=O)CC[C@H](NC(=O)CC[C@H](NC(=O)c6ccc(NCc7cnc8nc(N)nc(O)c8n7)cc6)C(=O)O)C(=O)O)C(=O)O)c5CC[C@@H]43)C(C)C)cc2)C[C@@H](O)[C@@H]1C` [FA-7-Val-Cit-PABA-16R-Aminoratjadone], for which the IC50 was 34.3 nM.

In the case of `C/C=C/[C@@H]1O[C@H]([C@@H](/C=C/C=C(\C)C[C@@H](C)/C=C(C)\C=C\[C@H]2CC=CC(=O)O2)NC(=O)OCCc2cn(-c3ccc(C(=O)NCCCC[C@H](NC(=O)CC[C@H](NC(=O)c4ccc(NCc5cnc6nc(N)nc(O)c6n5)cc4)C(=O)O)C(=O)N[C@H](CCCCN)C(=O)O)cc3)nn2)C[C@@H](O)[C@@H]1C` [FA-8-16R-Aminoratjadone, N^2—((S)-4-(4-(((2-amino-4-hydroxypteridin-6-yl)methyl)amino)benzamido)-4-carboxybutanoyl)-N^6-(4-(4-(2-((((1R,2E,4E,7R,8Z,10E)-1-((2S,4R,5S,6S)-4-hydroxy-5-methyl-6-((E)-prop-1-en-1-yl)tetrahydro-2H-pyran-2-yl)-5,7,9-trimethyl-11-((R)-6-oxo-3,6-dihydro-2H-pyran-2-yl)undeca-2,4,8,10-tetraen-1-yl)carbamoyl)oxy)ethyl)-1H-1,2,3-triazol-1-yl)benzoyl)-L-lysyl-D-lysine], the IC50 is 129 nM.

`C/C=C/[C@@H]1O[C@H]([C@@H](/C=C/C=C(\C)C[C@@H](C)/C=C(C)\C=C\[C@H]2CC=CC(=O)O2)NC(=O)OCc2ccc(NC(=O)[C@H](CCCNC(N)=O)NC(=O)[C@@H](NC(=O)OC[C@@H]3[C@@H]4CCc5nnn(-c6ccc(C(=O)NCCCC[C@H](NC(=O)CC[C@H](NC(=O)c7ccc(NCc8cnc9nc(N)nc(O)c9n8)cc7)C(=O)O)C(=O)N[C@H](CCCCN)C(=O)O)cc6)c5CC[C@@H]43)C(C)C)cc2)C[C@@H](O)[C@@H]1C` [FA-8-Val-Cit-PABA-16R-Aminoratjadone]: the IC50 is 39.9 nM.

`C/C=C/[C@@H]1O[C@H]([C@@H](/C=C/C=C(\C)C[C@@H](C)/C=C(C)\C=C\[C@H]2CC=CC(=O)O2)NC(=O)OCCc2cn(CCC[C@H](NC(=O)CC[C@H](NC(=O)c3ccc(NCc4cnc5nc(N)nc(O)c5n4)cc3)C(=O)O)C(=O)N[C@H](CCCCN)C(=O)O)nn2)C[C@@H](O)[C@@H]1C` [FA-9-16R-Aminoratjadone, ((S)-2-((S)-4-(4-(((2-amino-4-hydroxypteridin-6-yl)methyl)amino)benzamido)-4-carboxybutanamido)-5-(4-(2-((((1R,2E,4E,7R,8Z,10E)-1-((2S,4R,5S,6S)-4-hydroxy-5-methyl-6-((E)-prop-1-en-1-yl)tetrahydro-2H-pyran-2-yl)-5,7,9-trimethyl-11-((R)-6-oxo-3,6-dihydro-2H-pyran-2-yl)undeca-2,4,8,10-tetraen-1-yl)carbamoyl)oxy)ethyl)-1H-1,2,3-triazol-1-yl)pentanoyl)-D-lysine]: the IC50 is 47.6 nM.

For the molecule `C/C=C/[C@@H]1O[C@H]([C@@H](/C=C/C=C(\C)C[C@@H](C)/C=C(C)\C=C\[C@H]2CC=CC(=O)O2)NC(=O)OCc2ccc(NC(=O)[C@H](CCCNC(N)=O)NC(=O)[C@@H](NC(=O)OC[C@@H]3[C@@H]4CCc5nnn(CCC[C@H](NC(=O)CC[C@H](NC(=O)c6ccc(NCc7cnc8nc(N)nc(O)c8n7)cc6)C(=O)O)C(=O)N[C@H](CCCCN)C(=O)O)c5CC[C@@H]43)C(C)C)cc2)C[C@@H](O)[C@@H]1C` [FA-9-Val-Cit-PABA-16R-Aminoratjadone], the half-maximal inhibitory concentration (IC50) was 50.9 nM.

With `C/C=C/[C@@H]1O[C@H]([C@@H](/C=C/C=C(\C)C[C@@H](C)/C=C(C)\C=C\[C@H]2CC=CC(=O)O2)NC(=O)OCCc2cn(CCC[C@H](NC(=O)[C@@H](CC(=O)O)NC(=O)[C@@H](CC(=O)O)NC(=O)[C@@H](CC(=O)O)NC(=O)CC[C@H](NC(=O)c3ccc(NCc4cnc5nc(N)nc(O)c5n4)cc3)C(=O)O)C(=O)N[C@H](CC(=O)O)C(=O)N[C@H](CC(=O)O)C(=O)N[C@H](CCCCN)C(=O)O)nn2)C[C@@H](O)[C@@H]1C` [FA-10-16R-Aminoratjadone], the IC50 was found to be 708 nM.

As to `C/C=C/[C@@H]1O[C@H]([C@@H](/C=C/C=C(\C)C[C@@H](C)/C=C(C)\C=C\[C@H]2CC=CC(=O)O2)NC(=O)OCc2ccc(NC(=O)[C@H](CCCNC(N)=O)NC(=O)[C@@H](NC(=O)OC[C@@H]3[C@@H]4CCc5nnn(CCC[C@H](NC(=O)[C@@H](CC(=O)O)NC(=O)[C@@H](CC(=O)O)NC(=O)[C@@H](CC(=O)O)NC(=O)CC[C@H](NC(=O)c6ccc(NCc7cnc8nc(N)nc(O)c8n7)cc6)C(=O)O)C(=O)N[C@H](CC(=O)O)C(=O)N[C@H](CC(=O)O)C(=O)N[C@H](CCCCN)C(=O)O)c5CC[C@@H]43)C(C)C)cc2)C[C@@H](O)[C@@H]1C` [FA-10-Val-Cit-PABA-16R-Aminoratjadone], the IC50 stood at 35.3 nM.

For the molecule `C/C=C/[C@@H]1O[C@H]([C@@H](/C=C/C=C(\C)C[C@@H](C)/C=C(C)\C=C\[C@H]2CC=CC(=O)O2)NC(=O)OCc2ccc(NC(=O)[C@H](CCCNC(N)=O)NC(=O)[C@@H](NC(=O)OC[C@@H]3[C@@H]4CCc5nnn(CCC[C@H](NC(=O)[C@@H](CC(=O)O)NC(=O)[C@@H](CC(=O)O)NC(=O)[C@H](CCCn6nnc7c6CC[C@H]6[C@@H](CC7)[C@H]6COC(=O)N[C@H](C(=O)N[C@@H](CCCNC(N)=O)C(=O)Nc6ccc(COC(=O)N[C@H](/C=C/C=C(\C)C[C@@H](C)/C=C(C)\C=C\[C@H]7CC=CC(=O)O7)[C@@H]7C[C@@H](O)[C@H](C)[C@H](/C=C/C)O7)cc6)C(C)C)NC(=O)[C@@H](CC(=O)O)NC(=O)[C@@H](CC(=O)O)NC(=O)[C@H](CCCn6nnc7c6CC[C@H]6[C@@H](CC7)[C@H]6COC(=O)N[C@H](C(=O)N[C@@H](CCCNC(N)=O)C(=O)Nc6ccc(COC(=O)N[C@H](/C=C/C=C(\C)C[C@@H](C)/C=C(C)\C=C\[C@H]7CC=CC(=O)O7)[C@@H]7C[C@@H](O)[C@H](C)[C@H](/C=C/C)O7)cc6)C(C)C)NC(=O)[C@@H](CC(=O)O)NC(=O)[C@@H](CC(=O)O)NC(=O)CC[C@H](NC(=O)c6ccc(NCc7cnc8nc(N)nc(O)c8n7)cc6)C(=O)O)C(=O)O)c5CC[C@@H]43)C(C)C)cc2)C[C@@H](O)[C@@H]1C` [FA-11-(Val-Cit-PABA-16R-Aminoratjadone)3], the IC50 was found to be 45 nM.

As to `C/C=C/[C@@H]1O[C@H]([C@@H](/C=C/C=C(\C)C[C@@H](C)/C=C(C)\C=C\[C@H]2CC=CC(=O)O2)NC(=O)CCSSC[C@H](NC(=O)CC[C@H](NC(=O)c2ccc(NCc3cnc4nc(N)nc(O)c4n3)cc2)C(=O)O)C(=O)O)C[C@@H](O)[C@@H]1C` [FA-SS-16R-Aminoratjadone, N^2-(4-(((2-amino-4-hydroxypteridin-6-yl)methyl)amino)benzoyl)-N^5-((R)-1-carboxy-2-((3-(((1R,2E,4E,7R,8Z,10E)-1-((2S,4R,5S,6S)-4-hydroxy-5-methyl-6-((E)-prop-1-en-1-yl)tetrahydro-2H-pyran-2-yl)-5,7,9-trimethyl-11-((R)-6-oxo-3,6-dihydro-2H-pyran-2-yl)undeca-2,4,8,10-tetraen-1-yl)amino)-3-oxopropyl)disulfaneyl)ethyl)-L-glutamine], the IC50 was 295 nM.

Source of the values: patent US11236059B2, “Targeted cytotoxic ratjadone derivatives and conjugates thereof” (HELMHOLTZ-ZENTRUM FUER INFEKTIONSFORSCHUNG GMBH, priority 2017, dated 2022).
